{"source": "patent US20130136836A1", "about": "“Taste-Masking Compositions, Sweetener Compositions and Consumable Product Compositions Containing the Same” (Nutrinova Nutrition Specialties & Food Ingredients GmbH, priority 2011, published 2013)", "key": {"[1]": {"test_system": "panel of trained sensory evaluators", "experiment": "Taste and spit assay, descriptive taste impression versus base samples, panel of 4 trained sensory evaluators (Examples 3 to 13)", "format": "in vivo, human", "conditions": "for further effect added to the composition of the invention: benzaldehyde 0.02 wppm, below its threshold", "protocol": "All tests were conducted under controlled and standardized conditions.\n(§1) The samples were prepared by a trained laboratory assistant.\n35 ml of the samples were served at room temperature in clear plastic cups.\nThe following samples comprising a composition of the invention were tested for their ability to improve the taste of artificial sweeteners.\nAll samples were tested in duplicate and evaluated at least 3 different concentrations in comparison to 3 base samples (samples 1 to 3).\nThe panelists were asked to evaluate and to describe the taste impression of the samples 4 to 13 containing a sweetener composition comprising acesulfame potassium, sucralose and a composition of the invention, e.g. bitter aftertaste, creaminess, fullness and character of the sweeteners in each case in comparison to the base samples 1 to 3.\nThe results of the taste and spit assay are based in each case on a qualitative evaluation of the differences between the samples."}, "[2]": {"test_system": "panel of trained sensory evaluators", "experiment": "Taste and spit assay with regard to sweetness in the aftertaste, panel of 11 trained sensory evaluators (Example 2)", "format": "in vivo, human", "conditions": "11 panelists; 35 ml at 6.0-8.0 °C; after 2 minutes; qualitative comparison of three samples; FIG. 2", "protocol": "Again the panelists are given samples.\nAir was constantly exchanged.\nas §1\nThe panel used the sweetness scale anchored by three concentrations of sucrose:\nSweetness was assessed with the 1st sip (max. 30 ml, min of 15 ml) and scored in the aftertaste (after 2 minutes).\nAll samples were tested in duplicate."}}}
{"compound": "O=Cc1ccccc1", "note": "[Benzaldehyde, benzaldehyde]", "values": [{"measurement": "further effect added to the composition of the invention", "setting": "[1]; in sample 12 (with naringin, syringaldehyde, massoia lactone, whiskey lactone)", "value": "did not add any further effect"}, {"measurement": "further effect added to the composition of the invention", "setting": "[1]; in sample 13 (with naringin, 4-methoxy salicylaldehyde, lactones, amino acids; sucralose 75 wppm)", "value": "did not add any further effect"}]}
{"compound": "OC[C@H]1O[C@@](CO)(O[C@H]2O[C@H](CO)[C@@H](O)[C@H](O)[C@H]2O)[C@@H](O)[C@@H]1O", "note": "[saccharose]", "values": [{"measurement": "sweetness in the aftertaste", "setting": "[2]", "value": "less sweet in the aftertaste than acesulfame potassium and sucralose"}]}
{"compound": "delta-undecalactone", "values": [{"measurement": "taste impression of the lactone in the composition", "setting": "[1]; delta-undecalactone 0.0388 wppm in Sample 14, replacing massoia lactone, 4 panelists", "value": "not being too volatile and as adding a creamy taste, and as improving the total composition"}]}
